Biological target: T1, PuORh (putrescine oxidase) (Rhodococcus erythropolis, UniProt B0F9F6)
T1 sequence (B0F9F6 1-453): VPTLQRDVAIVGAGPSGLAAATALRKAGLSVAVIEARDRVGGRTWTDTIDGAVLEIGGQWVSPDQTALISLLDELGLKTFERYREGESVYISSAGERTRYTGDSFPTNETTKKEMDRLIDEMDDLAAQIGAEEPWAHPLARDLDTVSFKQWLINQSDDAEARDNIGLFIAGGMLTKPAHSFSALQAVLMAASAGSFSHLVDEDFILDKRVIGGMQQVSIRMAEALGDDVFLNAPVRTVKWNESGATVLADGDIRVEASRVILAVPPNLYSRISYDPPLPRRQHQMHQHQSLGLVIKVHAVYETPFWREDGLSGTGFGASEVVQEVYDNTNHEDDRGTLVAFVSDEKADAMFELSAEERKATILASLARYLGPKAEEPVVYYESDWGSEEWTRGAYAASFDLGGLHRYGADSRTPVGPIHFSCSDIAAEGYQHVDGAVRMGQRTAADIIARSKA
Assay: absorbance spectrum, release by trichloroacetic acid and heat
Format: binding
Settings: non-covalent; pH 8.0, 25°C for spectra

## Cc1cc2nc3c(=O)[nH]c(=O)nc-3n(C[C@H](O)[C@H](O)[C@H](O)COP(=O)(O)OP(=O)(O)OC[C@H]3O[C@@H](n4cnc5c(N)ncnc54)[C@H](O)[C@@H]3O)c2cc1C [FAD]
  absorbance spectrum, release by trichloroacetic acid and heat: the FAD cofactor in PuORh, like in PuOMr, is not covalently bound

— publication PMC2243256 (Applied Microbiology and Biotechnology, 2008)
